Converted amounts (≈) assume the structure as drawn.
How the values were obtained:
[1] = set-up: method as in PMID 28573435, PMID 31241371; settings: orally 240 mg twice a day, patients with advanced malignancies; cited from earlier work
S. sanguinis biofilm [2] = assay: Reduction of 1-day-developed biofilm, crystal violet (MBRC); type: cell-based, Streptococcus sanguinis; settings: S. sanguinis 1-day-developed biofilm, 24 h, 90% or more reduction
Protocol: (§1) The effect of NAP on the 1-day-developed biofilm was examined by the minimum biofilm reduction concentration (MBRC). S. mutans, S. gordonii, or S. sanguinis (1 × 10^7CFU/mL, 200 μL/well) in BHIS was added to a 96-well polystyrene tissue culture plate. After anaerobic incubation at 37°C for 24 h, the supernatants were removed and washed with PBS three times without disrupting the integrity of biofilms. Fresh BHIS containing NAP ranging from 0.12 to 125 μg/mL were added to each well and incubated at 37°C for 24 h. The negative control was biofilms in BHIS without NAP. The biofilm was fixed, air-dried, stained, and quantified as described above.

[3] = test system: oral streptococcal multispecies biofilms; assay: Multispecies biofilm imaging (dead/live, EPS staining, CLSM); type: cell-based, S. mutans, S. gordonii, S. sanguinis; settings: 5 min three times per day for 3 days; for structural integrity of multispecies biofilms: 0.2% CHX
Protocol: The multispecies biofilms were cultivated in accordance with a previous study. Overnight cultures of S. mutans, S. gordonii, and S. sanguinis were simultaneously inoculated (inoculum ratio = 1 : 1 : 1). The chemotaxis chamber μ-Slide, which has extremely low values of birefringence and autofluorescence, was used for bacterial culture and confocal microscopy. Bacterial suspensions (1 × 10^5CFU/mL for each strain) were mixed in 300 μL BHI containing 1% sucrose (BHIS) in the μ-Slide (8 wells, 80826, Ibidi) at 37°C for 24 h. Then, biofilms were exposed to PBS, 62.5 μg/mL NAP, and 0.2% CHX for 3 days (5 min, three times per day). This short-term repeated treatment was to simulate the daily exposure to the mouth rinses.
For dead/live imaging, biofilms were stained with fluorescent LIVE/DEAD BacLight Bacterial Viability stain (Molecular Probes, Invitrogen) containing SYTO 9 and propidium iodide according to the manufacturer's instructions. The labeled biofilms were imaged with a DMIRE2 confocal laser scanning microscope (Leica, Wetzlar, Germany) equipped with a 60x oil immersion objective lens.
For extracellular polysaccharide (EPS) staining, the bacterial cell and the EPS were stained with SYTO 9 (Molecular Probes) and Alexa Fluor 647-labeled dextran conjugate (Molecular Probes) as described previously. The biofilms were captured with a Leica DMIRE2 confocal laser scanning microscope as in live/dead imaging.
All three-dimensional reconstructions of the biofilms were performed with Imaris 7.0.0 (Bitplane, Zürich, Switzerland). The quantification of the dead/live and EPS/bacteria volume ratio was, respectively, performed with Image-Pro Plus (Media Cybernetics, Silver Spring, MD, USA) and COMSTAT (http://www.image-analysis.dk).

[4] = test system: oral streptococcal multispecies biofilms; assay: Multispecies biofilm composition by FISH and qPCR; type: cell-based, S. mutans, S. gordonii, S. sanguinis; settings: 62.5 μg/mL NAP, 5 min three times per day for 3 days; for total amount of streptococci: 0.2% CHX
Protocol: The multispecies biofilms were cultivated in accordance with a previous study. Overnight cultures of S. mutans, S. gordonii, and S. sanguinis were simultaneously inoculated (inoculum ratio = 1 : 1 : 1). The chemotaxis chamber μ-Slide, which has extremely low values of birefringence and autofluorescence, was used for bacterial culture and confocal microscopy. Bacterial suspensions (1 × 10^5CFU/mL for each strain) were mixed in 300 μL BHI containing 1% sucrose (BHIS) in the μ-Slide (8 wells, 80826, Ibidi) at 37°C for 24 h. Then, biofilms were exposed to PBS, 62.5 μg/mL NAP, and 0.2% CHX for 3 days (5 min, three times per day). This short-term repeated treatment was to simulate the daily exposure to the mouth rinses. For fluorescent in situ hybridization imaging, biofilms were fixed in 4% paraformaldehyde overnight and investigated by species-specific probes. The multispecies biofilms were imaged with a confocal laser scanning microscope (FV1000, Olympus, Tokyo, Japan). Total DNA of biofilms were isolated and purified using a TIANamp Bacteria DNA kit (TIANGEN, Beijing, China). The purity and concentration of DNA were detected with a NanoDrop 2000 spectrophotometer (Thermo Scientific, Waltham, MA, USA). The extracts were stored at -20°C until use. TaqMan real-time polymerase chain reaction (Life Technologies, Carlsbad, CA, USA) was used to quantify the absolute number of S. mutans, S. gordonii, and S. sanguinis as described by the manufacturer (Takara, Dalian, China).

macrophage RAW264.7 = assay: In vitro cytotoxicity/viability, CCK-8; type: cell-based; settings: Mus musculus, 5 min, RAW264.7, 5 min exposure, read-out: IC50 (cell viability)
Protocol: (§2) Cell viability was evaluated by using the Cell Counting Kit-8 (CCK-8, Dojindo, Kumamoto, Japan) assay as described by Park et al.. Test cells were human oral keratinocytes (HOK), human gingival epithelia (HGE), and macrophage RAW264.7 (RAW264.7). Cells were plated in 96-well plates at 10,000 cells/well in minimum essential medium with the Dulbecco's modified Eagle's medium (DMEM) supplemented with 10% fetal bovine serum and 1% antibiotic-antimycotic. The cells were grown in a humidified environment with 5% CO2 at 37°C for 24 hours. Considering the short exposure duration of oral cells to mouth rinses, cells were treated with medium containing NAP (0.12 to 62.5 μg/mL) and positive control CHX for 5 min [27–29]. Then, the cells were washed with PBS twice and were added with the fresh medium (200 μL/well). Each well was added with 10 μL of CCK-8, and after incubation in the CO2 incubator for 1 h to 1.5 h, absorbance was measured at the wavelength of 450 nm. The cell viability was calculated according to the following formula: (%) = (A450oftestgroup − A450ofblankcontrol)/(A450ofnegativecontrol − A450ofblankcontrol) × 100%.

[5] = test system: human gingival epithelial cells (HGE); assay: In vitro cytotoxicity/viability, CCK-8; type: cell-based; settings: Epithelial cell, 5 min, 5 min exposure
Protocol: as §2

[6] = test system: human oral keratinocytes (HOK); assay: In vitro cytotoxicity/viability, CCK-8; type: cell-based; settings: Keratinocyte, 5 min, 5 min exposure, read-out: IC50 (cell viability)
Protocol: as §2

S. mutans biofilm [7] = assay: Biofilm formation inhibition, crystal violet (MBIC); type: cell-based, Streptococcus mutans; settings: 24 h, 90% or more inhibition of biofilm formation
Protocol: (§3) The minimum biofilm inhibition concentration (MBIC) was used to evaluate the effect of NAP on biofilm formation. S. mutans, S. gordonii, or S. sanguinis (1 × 10^7CFU/mL, 10 μL/well) were grown in BHIS with twofold serial dilution of NAP (200 μL/well) ranging from 0.12 to 125 μg/mL at 37°C for 24 h. A parallel study was also performed with BHIS as a negative control. Then, the supernatants from the wells were decanted, and the adherent biofilm was washed three times with PBS to remove the planktonic cells. Fixed with methanol for 15 min and air-dried at room temperature, the biofilm was stained with 0.1% (wt/vol) crystal violet (Sigma) for 5 min, rinsed with deionized water until blank control wells were colorless, and added 200 μL of 95% ethanol to each crystal violet-stained well. Subsequently, the plate was rocked 30 min at room temperature, and the absorbance at 595 nm was recorded. The percentage of inhibition was calculated using the equation: (A595ofnegativecontrol − A595ofthetestgroup)/A595ofnegativecontrol × 100%.

S. gordonii biofilm [8] = assay: Reduction of 1-day-developed biofilm, crystal violet (MBRC); type: cell-based, Streptococcus gordonii; settings: S. gordonii 1-day-developed biofilm, 24 h, 90% or more reduction
Protocol: as §1

S. mutans biofilm [9] = assay: as above; type: cell-based, Streptococcus mutans; settings: S. mutans 1-day-developed biofilm, 24 h, 90% or more reduction
Protocol: as §1

[10] = test system: Streptococcus gordonii DL1; assay: Bacterial susceptibility test, microdilution in BHI (MIC/MBC); type: cell-based; settings: S. gordonii, planktonic cells
Protocol: (§4) Streptococcus mutans UA159, Streptococcus gordonii DL1, and Streptococcus sanguinis ATCC 10556 were kindly provided by the State Key Laboratory of Oral Diseases (Sichuan University, Chengdu, China). S. mutans, S. gordonii, and S. sanguinis were routinely grown at 37°C under aerobic condition (5% CO2) in brain heart infusion broth (BHI; Difco, Sparks, MD). Inoculum for the experiment was adjusted to 1 × 10^8CFU/mL for S. mutans, S. gordonii, and S. sanguinis based on the OD600 nm versus CFU/mL graph of each bacterium and further 1 : 100 diluted in the growth culture. When needed, medium was supplemented with 1% sucrose (designated BHIS). The minimum inhibitory concentration (MIC) and minimum bactericidal concentration (MBC) of NAP against S. mutans, S. gordonii, and S. sanguinis were determined by a microdilution method in BHI, as described previously. The concentrations of NAP ranged from 0.97 to 1000 μg/mL (twofold dilutions). BHI broth containing equivalent DMSO (1% to 0.001%, v/v) was used as a solvent control and ran simultaneously to control for the possible growth inhibition caused by the added DMSO. CHX was used as a positive control, cell control (test bacteria and BHI broth) was used as a negative control, and BHI broth was used as a blank control.

[11] = test system: Streptococcus mutans UA159; assay: as above; type: cell-based; settings: S. mutans, planktonic cells
Protocol: as §4

[12] = test system: Streptococcus sanguinis ATCC 10556; assay: as above; type: cell-based; settings: ATCC10556, S. sanguinis, planktonic cells
Protocol: as §4

[13] = test system: multispecies biofilms on human enamel slabs; assay: Biofilm-induced demineralization of human enamel slabs, transverse microradiography; type: cell-based, S. mutans, S. gordonii, S. sanguinis; settings: 62.5 μg/mL NAP, 0.2% CHX, 5 min three times per day for 5 days; compared to negative control
Excerpt: Human teeth free of white spots, cracks, and other defects that had been extracted for periodontal or impacted reasons were collected under a protocol approved by the Ethics Committee of West China Hospital of Stomatology, Sichuan University (WCHSIRB-D-2018-107). Crowns were separated from roots and cut into four sections measuring 5mm × 5mm × 2mm by using a diamond-coated saw (Struers Minitom; Struers, Copenhagen, Denmark) under continuous water cooling. The enamel slabs were embedded in polymethylmethacrylate and painted with two layers of acid-resistant nail varnish, leaving a 4mm × 4mm window of the exposed enamel surface. Then, these surfaces were polished progressively with waterproof silicon carbide abrasive papers (800–4000 grit; Struers, Copenhagen, Denmark) and were ultrasonically cleaned in a deionized water for 5 min to remove the residual abrasives. All slabs were sterilized with ethylene oxide. The 30 specimens were randomly divided into 3 groups: PBS, 62.5 μg/mL NAP, and 0.2% CHX. Enamel slabs obtained from the same tooth were evenly distributed to each test group.
Overnight cultures of S. mutans, S. gordonii, and S. sanguinis (1 × 10^7CFU/mL) were simultaneously inoculated on enamel slabs in a 24-well cell culture plate with BHIS at 37°C. Slabs with biofilms were then exposed to PBS, 62.5 μg/mL NAP, and 0.2% CHX for 5 days (5 min, three times per day). The 5-day demineralization duration was in accordance with previous studies. All specimens were then washed in PBS and refreshed with BHIS after every exposure. After 5 days of treatment, specimens were taken out and rinsed with PBS to remove the biofilms. Then, specimens were cut again and polished with a hand plane—parallel from both sides with waterproof silicon carbide abrasive papers (800–4000 grit; Struers, Copenhagen, Denmark) to thickness ranging around […]. X-ray films of experimental lesions were acquired with an X-ray generator (Softex, Japan) equipped with a microradiography camera and then were further examined using a Zeiss AXIO Imager A2 microscope (Carl Zeiss, Germany). Quantitative data was acquired by a calibrated analysis system TMR2006 (Inspektor Research Systems BV, Netherlands). Data are obtained as the mean of 10 separate samples.

S. sanguinis biofilm [14] = assay: Biofilm formation inhibition, crystal violet (MBIC); type: cell-based, Streptococcus sanguinis; settings: 24 h, 90% or more inhibition of biofilm formation
Protocol: as §3

S. gordonii biofilm [15] = assay: as above; type: cell-based, Streptococcus gordonii; settings: 24 h, 90% or more inhibition of biofilm formation
Protocol: as §3

[16] = 62.5 μg/mL NAP compared to 0.2% CHX

MIC [10]	MIC [11]	MIC [12]	Compound	MBRC (S. sanguinis biofilm [2])	structural integrity of multispecies biofilms ([3]; 62.5 μg/mL NAP)	total amount of streptococci [4]	IC50 (macrophage RAW264.7)	IC50 [5]	IC50 [6]	MBIC (S. mutans biofilm [7])	MBRC (S. gordonii biofilm [8])	MBRC (S. mutans biofilm [9])	MBC [10]	MBC [11]	MBC [12]	depth of biofilm-induced lesion [13]	mineral loss of enamel [13]	MBIC (S. sanguinis biofilm [14])	MBIC (S. gordonii biofilm [15])	further results
0.49 µg/mL (≈ 2.04 µM)	3.91 µg/mL (≈ 16.3 µM)	0.49 µg/mL (≈ 2.04 µM)	CC(=O)c1cc2c(o1)C(=O)c1ccccc1C2=O [NAP, 2-acetylfuro-1,4-naphathoquinone]	3.91 µg/mL	disrupted the structural integrity of multispecies biofilms significantly	significantly reduced the total amount of streptococci	> 62.5 µg/mL	> 62.5 µg/mL	> 62.5 µg/mL	1.95 µg/mL	15.63 µg/mL	62.50 µg/mL	0.98 µg/mL (≈ 4.08 µM)	15.6 µg/mL (≈ 65.1 µM)	15.6 µg/mL (≈ 65.1 µM)	significantly reduced	significantly reduced	1.95 µg/mL	0.49 µg/mL	adverse events [1]: generally mild; EPS/bacteria ratio [3, 16]: equivalent; dead/live cell ratio [3, 16]: equivalent dead/live cell ratio; bacteria within the biofilms (volume) ([3]; 62.5 μg/mL NAP vs 0.2% CHX): further reduced the bacteria within the oral streptococcal biofilms as compared to CHX; EPS production in the biofilm ([3]; 62.5 μg/mL NAP): significantly inhibit EPS production; multispecies biofilm composition [4]: inhibited S. mutans and S. sanguinis but increased the proportion of the commensal S. gordonii
3.91 µg/mL (≈ 7.74 µM)	1.95 µg/mL (≈ 3.86 µM)	0.49 µg/mL (≈ 0.969 µM)	[H]/N=C(\N/C(=N/[H])NCCCCCCNC(=N)NC(=N)Nc1ccc(Cl)cc1)Nc1ccc(Cl)cc1 [CHX, Chlorhexidine]	3.91 µg/mL	disrupted the structural integrity of multispecies biofilms significantly	significantly reduced the total amount of streptococci	31.2 to 62.5 µg/mL (≈ 61.8 to 124 µM)	31.2 to 62.5 µg/mL (≈ 61.8 to 124 µM)	31.2 to 62.5 µg/mL (≈ 61.8 to 124 µM)	0.98 µg/mL	15.63 µg/mL	62.50 µg/mL	7.81 µg/mL (≈ 15.5 µM)	7.81 µg/mL (≈ 15.5 µM)	3.91 µg/mL (≈ 7.74 µM)	significantly reduced	significantly reduced	1.95 µg/mL	3.91 µg/mL	

From PMC7700029, “Repurposing Napabucasin as an Antimicrobial Agent against Oral Streptococcal Biofilms” (BioMed Research International, 2020)
